# Measurements from the supplement of paper PMC11061612.
# How the values were obtained:
# [1] = compound: C1CN(CCC1(C(=O)N[C@@H](CCO)C2=CC=C(C=C2)Cl)N)C3=NC=NC4=C3C=CN4 [Capivasertib]; settings: max 10 µM
# In short: (§1)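 Cancer cell lines in 1536-well plates (7.5 μl DMEM/F12 or RPMI, 10% FBS) were held 24 hours at 37°C and 5% CO2 and then dosed for 72 hours at a final DMSO of typically 0.2%. Viability was taken from CellTiter-Glo 2.0 luminescence, scaled between blank-well and DMSO-well means. Curves were fitted as two-parameter logistic models with a non-linear mixed effects model, from which the single-agent IC50 was taken.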
# [2] = compound: C=CCn1c(=O)c2cnc(Nc3ccc(N4CCN(C)CC4)cc3)nc2n1-c1cccc(C(C)(C)O)n1 [AZD1775]; settings: max 3 µM
# In short: as §1
# [3] = compound: CC(=O)Nc1cccc(-n2c(=O)n(C3CC3)c(=O)c3c(Nc4ccc(I)cc4F)n(C)c(=O)c(C)c32)c1 [Trametinib]; settings: max 1 µM
# In short: as §1
# [4] = compound: CC(=O)c1c(C)c2cnc(Nc3ccc(N4CCNCC4)cn3)nc2n(C2CCCC2)c1=O [Palbociclib]; settings: max 10 µM
# In short: as §1
# [5] = compound: CC(C)n1c(=O)n(C)c2cnc3cc(F)c(-c4ccc(OCCCN5CCCCC5)nc4)cc3c21 [AZD1390]; settings: max 0.3 µM
# In short: as §1
# [6] = compound: CC1(C)CCC(CN2CCN(c3ccc(C(=O)NS(=O)(=O)c4ccc(NCC5CCOCC5)c([N+](=O)[O-])c4)c(Oc4cnc5[nH]ccc5c4)c3)CC2)=C(c2ccc(Cl)cc2)C1 [Venetoclax]; settings: max 1 µM
# In short: as §1
# [7] = compound: CC1=C(C(=CC=C1)Cl)NC(=O)C2=CN=C(S2)NC3=CC(=NC(=N3)C)N4CCN(CC4)CCO [Dasatinib]; settings: max 2 µM
# In short: as §1
# [8] = compound: CC1=CN2[C@@H](C1)C=NC3=CC(=C(C=C3C2=O)OC)OCCCCCOC4=C(C=C5C(=C4)N=C[C@@H]6CC(=CN6C5=O)C)OC [SG3199]; settings: max 0.001 µM
# In short: as §1
# [9] = compound: CCN(CCO)CCCOc1ccc2c(Nc3cc(CC(=O)Nc4cccc(F)c4)[nH]n3)ncnc2c1 [AZD2811]; settings: max 1 µM
# In short: as §1
# [10] = compound: CCc1c2c(nc3ccc(O)cc13)-c1cc3c(c(=O)n1C2)COC(=O)[C@]3(O)CC [SN-38]; settings: max 0.3 µM
# In short: as §1
# [11] = compound: CN(C)CCCOc1ccc(-c2ccc3ncc4c(c3c2)n(C2CCOCC2)c(=O)n4C)cn1 [AZD0156]; settings: max 3 µM
# In short: as §1
# [12] = compound: CN(CC[C@H](CSC1=CC=CC=C1)NC2=C(C=C(C=C2)S(=O)(=O)NC(=O)C3=CC=C(C=C3)N4CCC(CC4)[C@H](C5=CC=CC=C5C6=CC=C(C=C6)Cl)O)S(=O)(=O)C(F)(F)F)CCO [AZD4320]; settings: max 1 µM
# In short: as §1
# [13] = compound: COc1cc(Nc2ncc3c(n2)-c2ccc(Cl)cc2C(c2c(F)cccc2OC)=NC3)ccc1C(=O)O [Alisertib]; settings: max 10 µM
# In short: as §1
# [14] = compound: COc1cc2ncnc(Nc3ccc(F)c(Cl)c3)c2cc1OCCCN1CCOCC1 [Gefitinib]; settings: max 10 µM
# In short: as §1
# [15] = compound: COc1cccc(OCCCN)c1-c1cc(Nc2cnc(C#N)cn2)n[nH]1 [Prexasertib]; settings: max 1 µM
# In short: as §1
# [16] = compound: COc1cccc2c1C(=O)c1c(O)c3c(c(O)c1C2=O)C[C@@](O)(C(=O)CO)C[C@@H]3O[C@H]1C[C@H](N)[C@H](O)[C@H](C)O1 [Doxorubicin]; settings: max 1 µM
# In short: as §1
# [17] = compound: COc1nnc2ccc(N3CCC(c4ccc(OCCN5CCN(C)C(=O)[C@H]5C)cc4)CC3)nn12 [AZD5153]; settings: max 1 µM
# In short: as §1
# [18] = compound: CS(=O)(=O)CCNCc1ccc(-c2ccc3ncnc(Nc4ccc(OCc5cccc(F)c5)c(Cl)c4)c3c2)o1 [Lapatinib]; settings: max 10 µM
# In short: as §1
# [19] = compound: C[C@@H](Nc1cc(F)cc(F)c1)c1cc(C(=O)N(C)C)cc2c(=O)cc(N3CCOCC3)oc12 [AZD8186]; settings: max 3 µM
# In short: as §1
# [20] = compound: C[C@@H](Oc1cc(-c2cnn(C3CCNCC3)c2)cnc1N)c1c(Cl)ccc(F)c1Cl [Crizotinib]; settings: max 10 µM
# In short: as §1
# [21] = compound: C[C@@H](c1ccc2nccn2c1)n1nnc2ncc(-c3cnn(C)c3)nc21 [Savolitinib]; settings: max 1 µM
# In short: as §1
# [22] = compound: C[C@@H]1COCCN1C2=NC(=NC(=C2)C3(CC3)[S@](=N)(=O)C)C4=C5C=CNC5=NC=C4 [AZD6738]; settings: max 10 µM
# In short: as §1
# [23] = compound: Cc1c2c(nn1C)CSCc1cc(n(C)n1)CSc1cc(c3ccccc3c1)OCCCc1c(C(=O)O)n(C)c3c-2c(Cl)ccc13 [AZD5991]; settings: max 1 µM
# In short: as §1
# [24] = compound: Cc1cc2ncnn2cc1Nc1ncc2c(n1)n(C1CCOCC1)c(=O)n2C [AZD7648]; settings: max 10 µM
# In short: as §1
# [25] = compound: Cc1nc(-c2cn3c(n2)-c2ccc(-c4cnn(C(C)(C)C(N)=O)c4)cc2OCC3)n(C(C)C)n1 [Taselisib]; settings: max 10 µM
# In short: as §1
# [26] = compound: Cn1cnc2c(F)c(Nc3ccc(Br)cc3Cl)c(C(=O)NOCCO)cc21 [Selumetinib]; settings: max 10 µM
# In short: as §1
# [27] = compound: O=C(c1cc(Cc2n[nH]c(=O)c3ccccc23)ccc1F)N1CCN(C(=O)C2CC2)CC1 [Olaparib]; settings: max 10 µM
# In short: as §1
Cell Line,"IC50, cell viability 72 h [1]","IC50, cell viability 72 h [2]","IC50, cell viability 72 h [3]","IC50, cell viability 72 h [4]","IC50, cell viability 72 h [5]","IC50, cell viability 72 h [6]","IC50, cell viability 72 h [7]","IC50, cell viability 72 h [8]","IC50, cell viability 72 h [9]","IC50, cell viability 72 h [10]","IC50, cell viability 72 h [11]","IC50, cell viability 72 h [12]","IC50, cell viability 72 h [13]","IC50, cell viability 72 h [14]","IC50, cell viability 72 h [15]","IC50, cell viability 72 h [16]","IC50, cell viability 72 h [17]","IC50, cell viability 72 h [18]","IC50, cell viability 72 h [19]","IC50, cell viability 72 h [20]","IC50, cell viability 72 h [21]","IC50, cell viability 72 h [22]","IC50, cell viability 72 h [23]","IC50, cell viability 72 h [24]","IC50, cell viability 72 h [25]","IC50, cell viability 72 h [26]","IC50, cell viability 72 h [27]"
PANC-08-13 (Pancreatic Carcinoma),> 10000 nM,> 3000 nM,> 1000 nM,> 10000 nM,> 300 nM,> 1000 nM,> 2000 nM,> 1 nM,> 1000 nM,> 300 nM,> 3000 nM,> 1000 nM,> 10000 nM,> 10000 nM,460 nM,> 1000 nM,350 nM,> 10000 nM,> 3000 nM,> 10000 nM,> 1000 nM,> 10000 nM,> 1000 nM,> 10000 nM,6440 nM,> 10000 nM,> 10000 nM
HL-60 (Acute Myeloid Leukemia),> 10000 nM,1670 nM,12.4 nM,> 10000 nM,> 300 nM,80.3 nM,> 2000 nM,> 1 nM,30.6 nM,6.04 nM,> 3000 nM,32.7 nM,407 nM,> 10000 nM,16.6 nM,159 nM,37 nM,> 10000 nM,> 3000 nM,5820 nM,> 1000 nM,7320 nM,35.7 nM,> 10000 nM,> 10000 nM,642 nM,> 10000 nM
DiFi (Colorectal Carcinoma),> 10000 nM,1420 nM,42.8 nM,> 10000 nM,> 300 nM,> 1000 nM,> 2000 nM,> 1 nM,595 nM,33.3 nM,> 3000 nM,> 1000 nM,5960 nM,52.4 nM,16.7 nM,961 nM,403 nM,315 nM,> 3000 nM,> 10000 nM,> 1000 nM,3530 nM,> 1000 nM,> 10000 nM,606 nM,7260 nM,> 10000 nM
MOLT-16 (T-Lymphoblastic Leukemia),811 nM,168 nM,> 1000 nM,420 nM,> 300 nM,308 nM,> 2000 nM,> 1 nM,12.4 nM,2.33 nM,> 3000 nM,16.3 nM,29.1 nM,> 10000 nM,11.2 nM,46.7 nM,76.2 nM,6350 nM,> 3000 nM,1770 nM,> 1000 nM,557 nM,51.5 nM,> 10000 nM,1110 nM,> 10000 nM,5600 nM
